Reference: ChEMBL document CHEMBL5500404, “Discovery and Development of NLRP3 Inhibitors Targeting the LRR Domain to Disrupt NLRP3-NEK7 Interaction for the Treatment of Rheumatoid Arthritis” (J Med Chem, 2024)
Activity calls are given as the source filed them. No cut-off for these calls is given here.

Experiments:
[1] = Cytotoxicity against human THP-1 cells assessed as cellular proliferation inhibition measured after 48 hrs by MTT assay; format: toxicity, cell-based
[2] = system: Rattus norvegicus; assay: Anti-inflammatory activity against complete Freund's adjuvant (CFA)-induced arthritis rat model assessed as synovial hyperplasia in rat synovium from the left rear ankle at 10 mg/kg, ip treated after 17 days of CFA challenge measured after 18 days (day 17 to 34) by H and E staining based assay relative to model group; format: functional, organism-based; conditions: time 18.0 day
[3] = system: THP-M; assay: Inhibition of NLRP3 and […] protein-protein interaction in human THP-M cells assessed as suppression activation of NLRP3 inflammasome by affecting ASC oligomerization at 10 to 50 uM pretreated for 24 hrs followed by stimulated with LPS for 3 hrs and ATP for 1 hr by co-IP analysis; format: cell-based; conditions: dose 10-50 µM, time 28.0 hrs
[4] = Half life in Sprague-Dawley rat at 20 mg/kg, IG measured upto 1440 mins by LC-MS/MS analysis; format: ADME, organism-based; conditions: in vivo, po
[5] = MRT (0 to infinity) in Sprague-Dawley rat at 20 mg/kg, ip measured upto 720 mins by LC-MS/MS analysis; format: ADME, organism-based; conditions: in vivo
[6] = MRT (0 to t) in Sprague-Dawley rat at 20 mg/kg, ip measured upto 720 mins by LC-MS/MS analysis; format: ADME, organism-based; conditions: in vivo
[7] = Half life in Sprague-Dawley rat at 20 mg/kg, ip measured upto 720 mins by LC-MS/MS analysis; format: ADME, organism-based; conditions: in vivo
[8] = Cmax in Sprague-Dawley rat at 20 mg/kg, IG measured upto 1440 mins by LC-MS/MS analysis; format: ADME, organism-based; conditions: in vivo, po
[9] = AUC (0 to t) in Sprague-Dawley rat at 20 mg/kg, IG measured upto 1440 mins by LC-MS/MS analysis; format: ADME, organism-based; conditions: in vivo, po
[10] = Bioavailability in Sprague-Dawley rat at 20 mg/kg, ip measured upto 720 mins by LC-MS/MS analysis; format: ADME, organism-based; conditions: in vivo
[11] = MRT (0 to infinity) in Sprague-Dawley rat at 20 mg/kg, IG measured upto 1440 mins by LC-MS/MS analysis; format: ADME, organism-based; conditions: in vivo, po
[12] = Apparent volume of distribution during terminal phase in Sprague-Dawley rat at 20 mg/kg, IG measured upto 1440 mins by LC-MS/MS analysis; format: ADME, organism-based; conditions: in vivo, po, read-out: Vz/F
[13] = MRT (0 to t) in Sprague-Dawley rat at 20 mg/kg, IG measured upto 1440 mins by LC-MS/MS analysis; format: ADME, organism-based; conditions: in vivo, po
[14] = AUC (0 to infinity) in Sprague-Dawley rat at 20 mg/kg, ip measured upto 720 mins by LC-MS/MS analysis; format: ADME, organism-based; conditions: in vivo, 12 h
[15] = AUC (0 to t) in Sprague-Dawley rat at 20 mg/kg, ip measured upto 720 mins by LC-MS/MS analysis; format: ADME, organism-based; conditions: in vivo
[16] = Apparent clearance during terminal phase in Sprague-Dawley rat at 20 mg/kg, IG measured upto 1440 mins by LC-MS/MS analysis; format: ADME, organism-based; conditions: in vivo, po
[17] = Apparent volume of distribution during terminal phase in Sprague-Dawley rat at 20 mg/kg, ip measured upto 720 mins by LC-MS/MS analysis; format: ADME, organism-based; conditions: in vivo, read-out: Vz/F
[18] = Tmax in Sprague-Dawley rat at 20 mg/kg, IG measured upto 1440 mins by LC-MS/MS analysis; format: ADME, organism-based; conditions: in vivo, po
[19] = AUC (0 to infinity) in Sprague-Dawley rat at 20 mg/kg, IG measured upto 1440 mins by LC-MS/MS analysis; format: ADME, organism-based; conditions: in vivo, po

Row | SMILES | IC50 at 48 h [1] | other results
1 | COC(=O)c1ccc(Cn2c(SCC3CCCCC3)nc3ccncc32)cc1 | > 100 µM | 
2 | CCNC(=O)c1ccc(Cn2c(SCC3CCCCC3)nc3ccncc32)cc1 | > 100 µM | 
3 | CCCNC(=O)c1ccc(Cn2c(SCC3CCCCC3)nc3ccncc32)cc1 | > 100 µM | 
4 | COCCCNC(=O)c1ccc(Cn2c(SCc3ccc(F)nc3)nc3ccncc32)cc1 | > 100 µM | 
5 | COc1ccc(N2CCN(CCCNC(=O)COCc3cc(-c4ccc5c(c4)OCO5)on3)CC2)cc1 | 85.2 µM | 
6 | CC(C)OCCCn1c(=O)c2ccccc2n2c(CCC(=O)NCc3ccccc3)nnc12 | 65.5 µM | 
7 | COCCCNC(=O)c1ccc(Cn2c(SCc3ccc(C)cc3)nc3ccncc32)cc1 | > 100 µM | 
8 | COCCCNC(=O)c1ccc(Cn2c(SCc3cccc(F)c3)nc3ccncc32)cc1 | > 100 µM | 
9 | CCOc1ccc(CCNC(=O)Cn2nc(-c3ccc(C)c(S(=O)(=O)N4CCCCC4)c3)c3ccccc3c2=O)cc1OCC | > 100 µM | 
10 | COCCCNC(=O)c1ccc(Cn2c(SCc3ccncc3)nc3ccncc32)cc1 | > 100 µM | 
11 | CNC(=O)CCn1c(SCC2CCCCC2)nc2ccncc21 | > 100 µM | 
12 | NC(=O)c1ccc(Cn2c(SCC3CCCCC3)nc3ccncc32)cc1 | > 100 µM | 
13 | COCCCNC(=O)c1ccc(Cn2c(SCc3ccccc3F)nc3ccncc32)cc1 | 53.3 µM | 
14 | CCOCCCNC(=O)c1ccc(CSc2nc3ccncc3n2Cc2cccc(OC)c2)cc1 | > 100 µM | 
15 | COc1ccc(C2=NN(C(=O)CSc3nnc(CNC(=O)COc4ccccc4)n3CCc3ccccc3)C(c3ccc(OC)cc3)C2)cc1 (configuration not stated) | > 100 µM | 
16 | CCCC(=O)Nc1ccc(Cn2c(SCC3CCCCC3)nc3ccncc32)cc1 | > 100 µM | 
17 | COC(=O)CCCCn1c(SCC2CCCCC2)nc2ccncc21 | > 100 µM | 
18 | COc1ccc(-c2[nH]c3ccccc3c2SCCNC(=O)c2ccc(S(=O)(=O)N3CCOCC3)cc2)cc1 | > 100 µM | 
19 | COCCCNC(=O)c1ccc(Cn2c(SCC3CCC3)nc3ccncc32)cc1 | > 100 µM | 
20 | COCCCNC(=O)c1ccc(Cn2c(SCc3ccc(C#N)cc3)nc3ccncc32)cc1 | > 100 µM | 
21 | COCCCNC(=O)c1ccc(Cn2c(SCc3cc(C)cc(C)c3)nc3ccncc32)cc1 | > 100 µM | 
22 | CC(C)(O)c1coc(S(=O)(=O)NC(=O)Nc2c3c(cc4c2CCC4)CCC3)c1 | > 100 µM | Activity [2]: Active
23 | COCCCNC(=O)c1ccc(Cn2c(SCc3ccc(Cl)cc3)nc3ccncc32)cc1 | 23 µM | 
24 | CCCCNC(=O)c1ccc(Cn2c(SCC3CCCCC3)nc3ccncc32)cc1 | > 100 µM | 
25 | CC(C)c1ccc(Cn2c(SCC3CCCCC3)nc3ccncc32)cc1 | 77.3 µM | 
26 | CCOCCCNC(=O)c1ccc(CSc2nc3ccncc3n2Cc2cccc(F)c2)cc1 | > 100 µM | 
27 | O=C(c1ccc(Cn2c(SCC3CCCCC3)nc3ccncc32)cc1)N1CCCC1 | > 100 µM | 

Row | SMILES | IC50 at 48 h [1] | other results
28 | COCCCNC(=O)c1ccc(Cn2c(SCc3cccnc3)nc3ccncc32)cc1 | > 100 µM | 
29 | CNC(=O)c1ccc(Cn2c(SCC3CCCCC3)nc3ccncc32)cc1 | > 100 µM | 
30 | CCCNC(=O)CCCCn1c(=O)c2ccccc2n(CC(=O)NCc2ccc(F)cc2)c1=O | > 100 µM | 
31 | COCCCNC(=O)c1ccc(Cn2c(SCC=C(C)C)nc3ccncc32)cc1 | > 100 µM | 
32 | COCCCNC(=O)c1ccc(Cn2c(SCc3ccccc3)nc3ccncc32)cc1 | > 100 µM | 
33 | COCCCNC(=O)c1ccc(Cn2c(SCc3ccc(F)cc3)nc3ccncc32)cc1 | > 100 µM | 
34 | COCCNC(=O)c1ccc(Cn2c(SCC3CCCCC3)nc3ccncc32)cc1 | 96.3 µM | 
35 | COc1ccc(N2CCN(CCCNC(=O)c3nnc(Cc4ccc(F)cc4)o3)CC2)cc1 | > 100 µM | 
36 | COCCCNC(=O)c1ccc(Cn2c(SCc3cc(F)cc(F)c3)nc3ccncc32)cc1 | > 100 µM | 
37 | CC(=O)Nc1ccc(Cn2c(SCC3CCCCC3)nc3ccncc32)cc1 | > 100 µM | 
38 | COCCCNC(=O)c1ccc(Cn2c(SCc3ccc(OC)cc3)nc3ccncc32)cc1 | > 100 µM | 
39 | COCCCNC(=O)c1ccc(Cn2c(SCc3ccccn3)nc3ccncc32)cc1 | > 100 µM | 
40 | COCCCNC(=O)c1ccc(Cn2c(SCC3CCCC3)nc3ccncc32)cc1 | > 100 µM | 
41 | CC(C)(C)c1ccc(Cn2c(SCC3CCCCC3)nc3ccncc32)cc1 | 93.5 µM | 
42 | COCCCNC(=O)c1ccc(Cn2c(SCc3cccc(C)c3)nc3ccncc32)cc1 | > 100 µM | 
43 | O=C(c1ccccc1)c1ccc(Cn2c(SCC3CCCCC3)nc3ccncc32)cc1 | 72.4 µM | 
44 | COCCCNC(=O)c1ccc(Cn2c(SCc3ccc(Br)cc3)nc3ccncc32)cc1 | 90.3 µM | 
45 | COCCCNC(=O)c1ccc(Cn2c(SCc3cccc([N+](=O)[O-])c3)nc3ccncc32)cc1 | > 100 µM | 
46 | COCCCNC(=O)c1ccc(Cn2c(SCC3CC3)nc3ccncc32)cc1 | > 100 µM | 
47 | CCC(=O)Nc1ccc(Cn2c(SCC3CCCCC3)nc3ccncc32)cc1 | > 100 µM | 
48 | CCOC(=O)c1ccc(Cn2c(SCC3CCCCC3)nc3ccncc32)cc1 | > 100 µM | inhibition [3]: Active
49 | CCCCCNC(=O)c1ccc(Cn2c(SCC3CCCCC3)nc3ccncc32)cc1 | 87.5 µM | 
50 | COCCCNC(=O)c1ccc(Cn2c(SCc3ccc(C(F)(F)F)cc3)nc3ccncc32)cc1 | 51.1 µM | 
51 | CCCc1ccc(Cn2c(SCC3CCCCC3)nc3ccncc32)cc1 | 87.6 µM | 
52 | O=C(c1ccc(Cn2c(SCC3CCCCC3)nc3ccncc32)cc1)N1CCOCC1 | > 100 µM | 
53 | COCCCNC(=O)c1ccc(Cn2c(SCc3ccc([N+](=O)[O-])cc3)nc3ccncc32)cc1 | > 100 µM | 
54 | O=C(c1ccc(Cn2c(SCC3CCCCC3)nc3ccncc32)cc1)N1CCNCC1 | > 100 µM | half-life [4]: 3.93 h; MRT inf [5]: 1.32 h; MRT last at 12 h [6]: 0.615 h; half-life [7]: 1.11 h; Cmax [8]: 280 ng/mL; AUC(0-t) at 24 h [9]: 733 ng·h/mL; bioavailability [10]: 13.2%; MRT inf [11]: 4.86 h; Vd/F [12]: 193 L/kg; MRT last at 24 h [13]: 2.89 h; AUC [14]: 103322 ng·min/mL; AUC(0-t) at 12 h [15]: 1320 ng·h/mL; CL/F [16]: 500 mL/min/kg; Vd/F [17]: 4.96 L/kg; Tmax [18]: 0.245 h; AUC(0-inf) [19]: 906 ng·h/mL
